The source of these data is patent publication US4971967A, “Quinolinecarboxylic acid derivatives, antibacterial compositions and use” (Kanebo Ltd, priority 1989, dated 1990).

In brackets after ≈: the same amount, converted by molar mass. Where a name gives a salt, the structure may show the parent alone.

Type in all cases: cell-based
Assay [1] concerns Staphylococcus aureus FDA 209P JC-1. In words: Antibacterial activity (MIC), S. aureus FDA 209P JC-1. The settings on record: FDA209P; Staphylococcus aureus FDA 209P JC-1, Gram +; read-out: Minimum inhibitory concentration (MIC). Here is the method:
(§1) The compounds of the present invention (A, C, D, E, F, G, H, I, J, L, O and P) and the known compound (X) as reference were dissolved in 0.1 N aqueous sodium hydroxide to prepare a solution of 5000 μg/ml in concentration. The compounds of the present invention (B, K, M and N) and the known compound (Y) were dissolved in sterilized distilled water to prepare a solution of 5000 μg/ml in concentration. Each solution was diluted with sterilized distilled water to prepare a standard solution with a concentration of each test compound: 1000 μg/ml. The test was carried out by a method as appointed by Japan Society of Chemotherapy [cf. Chemotherapy, 29, 76-79 (1981)(TOKYO)].

For assay [2], the system named is Staphylococcus aureus IID 803. The assay is described as follows: Antibacterial activity (MIC), S. aureus IID 803. The settings on record: IID803; Staphylococcus aureus IID 803, Gram +; read-out: Minimum inhibitory concentration (MIC). The method, then: as §1
Assay [3] has as its system Staphylococcus epidermidis IAM-1296. In words: Antibacterial activity (MIC), S. epidermidis IAM-1296. The settings on record: for MIC: Staphylococcus epidermidis, IAM1296, Staphylococcus epidermidis IAM-1296, Gram +, read-out: Minimum inhibitory concentration (MIC). The method, then: as §1
In assay [4] the test system is Streptococcus faecalis IID 682. The assay is described as follows: Antibacterial activity (MIC), Streptococcus faecalis IID 682. The conditions noted are these: Enterococcus faecalis, IID682, Streptococcus faecalis IID 682, Gram +; read-out: Minimum inhibitory concentration (MIC). Here is the method:
as §1

Assay [5] has as its system Bacillus subtilis ATCC 6633. The assay is described as follows: Antibacterial activity (MIC), Bacillus subtilis ATCC 6633. The settings on record: for MIC: Bacillus subtilis, ATCC6633, Bacillus subtilis ATCC 6633, Gram +, read-out: Minimum inhibitory concentration (MIC). The method, then:
as §1

The subject of assay [6] is Micrococcus luteus ATCC 9341. In words: Antibacterial activity (MIC), Micrococcus luteus ATCC 9341. The conditions noted are these: ATCC9341; Micrococcus luteus ATCC 9341, Gram +; read-out: Minimum inhibitory concentration (MIC). Here is the method: as §1
Assay [7] concerns Escherichia coli NIHJ JC-2. The assay is described as follows: Antibacterial activity (MIC), E. coli NIHJ JC-2. The conditions noted are these: NIHJJC2; Escherichia coli NIHJ JC-2, Gram -; read-out: Minimum inhibitory concentration (MIC). Here is the method: as §1
The subject of the next assay is Escherichia coli KC-14. The assay is described as follows: Antibacterial activity (MIC), E. coli KC-14. The conditions noted are these: KC14; Escherichia coli KC-14, Gram -; read-out: Minimum inhibitory concentration (MIC). Here is the method: as §1
Assay [8] relates to Klebsiella pneumoniae PCI-602. The assay is described as follows: Antibacterial activity (MIC), Klebsiella pneumoniae PCI-602. The settings on record: PCI602; Klebsiella pneumoniae PCI-602, Gram -; read-out: Minimum inhibitory concentration (MIC). The method, then:
as §1

For assay [9], the system named is Salmonella typhimurium IID 971. The assay is described as follows: Antibacterial activity (MIC), Salmonella typhimurium IID 971. The settings on record: Salmonella enterica; Salmonella typhimurium IID 971, Gram -; read-out: Minimum inhibitory concentration (MIC). Here is the method:
as §1

The subject of the next assay is Shigella sonnei EW-33. In words: Antibacterial activity (MIC), Shigella sonnei EW-33. The conditions noted are these: for MIC: Shigella sonnei, EW33, Shigella sonnei EW-33, Gram -, read-out: Minimum inhibitory concentration (MIC). Here is the method:
as §1

The subject of assay [10] is Serratia marcescens IAM 1184. The assay is described as follows: Antibacterial activity (MIC), Serratia marcescens IAM 1184. The conditions noted are these: for MIC: Serratia marcescens, IAM1184, Serratia marcescens IAM 1184, Gram -, read-out: Minimum inhibitory concentration (MIC). Here is the method: as §1
The subject of assay [11] is Pseudomonas aeruginosa IFO 3445. In words: Antibacterial activity (MIC), P. aeruginosa IFO 3445. The conditions noted are these: for MIC: Pseudomonas aeruginosa, IFO3445, Pseudomonas aeruginosa IFO 3445, Gram -, read-out: Minimum inhibitory concentration (MIC). The method, then: as §1
The test system of assay [12] is Pseudomonas aeruginosa NCTC 10490. In words: Antibacterial activity (MIC), P. aeruginosa NCTC 10490. The settings on record: for MIC: Pseudomonas aeruginosa, NCTC10490, Pseudomonas aeruginosa NCTC 10490, Gram -, read-out: Minimum inhibitory concentration (MIC). Here is the method: as §1
Assay [13] relates to Pseudomonas aeruginosa E-2. In words: Antibacterial activity (MIC), P. aeruginosa E-2. The settings on record: E2; Pseudomonas aeruginosa E-2, Gram -; read-out: Minimum inhibitory concentration (MIC). The method, then:
as §1

Assay [14] relates to Morganella morganii IFO 3848. In words: Antibacterial activity (MIC), Morganella morganii IFO 3848. The conditions noted are these: for MIC: Morganella morganii, IFO3848, Morganella morganii IFO 3848, Gram -, read-out: Minimum inhibitory concentration (MIC). Here is the method:
as §1

In the next assay the test system is Proteus vulgaris OX-19. The assay is described as follows: Antibacterial activity (MIC), Proteus vulgaris OX-19. The settings on record: OX19; Proteus vulgaris OX-19, Gram -; read-out: Minimum inhibitory concentration (MIC). Here is the method:
as §1

Assay [15] has as its system Proteus mirabilis IFO 3849. In words: Antibacterial activity (MIC), Proteus mirabilis IFO 3849. The settings on record: IFO3849; Proteus mirabilis IFO 3849, Gram -; read-out: Minimum inhibitory concentration (MIC). The method, then: as §1
Assay [16] concerns Enterobacter aerogenes ATCC 13048. The assay is described as follows: Antibacterial activity (MIC), Enterobacter aerogenes ATCC 13048. The conditions noted are these: Klebsiella aerogenes, ATCC13048; Enterobacter aerogenes ATCC 13048, Gram -; read-out: Minimum inhibitory concentration (MIC). The method, then: as §1
The subject of the next assay is Enterobacter cloacae 963. In words: Antibacterial activity (MIC), Enterobacter cloacae 963. The conditions noted are these: for MIC: Enterobacter cloacae, 963, Enterobacter cloacae 963, Gram -, read-out: Minimum inhibitory concentration (MIC). The method, then:
as §1

Assay [17] deals with Citrobacter freundii NIHJ 10018-68. The assay is described as follows: Antibacterial activity (MIC), Citrobacter freundii NIHJ 10018-68. The settings on record: for MIC: Citrobacter freundii, NIHJ10018, Citrobacter freundii NIHJ 10018-68, Gram -, read-out: Minimum inhibitory concentration (MIC). The method, then:
as §1

The test system of assay [18] is Acinetobacter calcoaceticus AC 54. In words: Antibacterial activity (MIC), Acinetobacter calcoaceticus AC 54. The conditions noted are these: AC54; Acinetobacter calcoaceticus AC 54, Gram -; read-out: Minimum inhibitory concentration (MIC). Here is the method:
as §1

Consider `CN1Cc2csc3c(C(=O)O)c(=O)c4cc(F)c(N5CCC(N)C5)c1c4n23` (stereo not drawn) [(H), 9,1-(Methylimino)methano-7-fluoro-8-(3-amino-1-pyrrolidinyl)-5-oxo-5H-thiazolo[3,2-a]quinoline-4-carboxylic acid], for which the MIC in assay [1] is 0.025 µg/mL (≈ 0.0644 µM); in assay [2] it was 0.006 µg/mL (≈ 0.0154 µM); in [3], 0.05 µg/mL (≈ 0.129 µM); in assay [4], 0.05 µg/mL (≈ 0.129 µM); in assay [5], 0.006 µg/mL (≈ 0.0154 µM); in assay [6], 0.2 µg/mL (≈ 0.515 µM). Besides, the MIC in assay [7] amounted to 0.05 µg/mL (≈ 0.129 µM); in the assay on Escherichia coli KC-14, 0.0125 µg/mL (≈ 0.0322 µM); in assay [8] it was 0.006 µg/mL (≈ 0.0154 µM); in assay [9] it was 0.05 µg/mL (≈ 0.129 µM); in the assay on Shigella sonnei EW-33, 0.05 µg/mL (≈ 0.129 µM); in assay [10] it was 0.1 µg/mL (≈ 0.257 µM). In addition, the MIC turned out to be 0.2 µg/mL (≈ 0.515 µM) in assay [11]; 0.2 µg/mL (≈ 0.515 µM) in assay [12]; 0.39 µg/mL (≈ 1 µM) in assay [13]; 0.05 µg/mL (≈ 0.129 µM) in assay [14]; 0.0125 µg/mL (≈ 0.0322 µM) with Proteus vulgaris OX-19; 0.1 µg/mL (≈ 0.257 µM) in assay [15]. The MIC in [16] is 0.05 µg/mL (≈ 0.129 µM); in the assay with Enterobacter cloacae 963 it was 0.05 µg/mL (≈ 0.129 µM); in assay [17], 0.1 µg/mL (≈ 0.257 µM); in assay [18], 0.0125 µg/mL (≈ 0.0322 µM).

With `CN1CCN(c2c(F)cc3c(=O)c(C(=O)O)c4scc5n4c3c2N(C)C5)CC1` [Compound (B), 9,1-(Methylimino)methano-7-fluoro-8-(4-methyl-1-piperazinyl)-5-oxo-5H-thiazolo [3,2-a]quinoline-4-carboxylic acid hydrochloride], the “Minimum inhibitory concentration (MIC)” value in assay [3] (Staphylococcus epidermidis IAM-1296, Gram +, hydrochloride) was 0.10 µg/mL; in assay [5] (Bacillus subtilis ATCC 6633, Gram +, hydrochloride), 0.025 µg/mL; in the assay on Shigella sonnei EW-33 (Shigella sonnei EW-33, Gram -, hydrochloride), 0.05 µg/mL; in [10] (Serratia marcescens IAM 1184, Gram -, hydrochloride), 0.39 µg/mL; in assay [11] (Pseudomonas aeruginosa IFO 3445, Gram -, hydrochloride), 0.78 µg/mL; in assay [12] (Pseudomonas aeruginosa NCTC 10490, Gram -, hydrochloride) it was 0.39 µg/mL. For the same molecule, the “Minimum inhibitory concentration (MIC)” value amounted to 0.10 µg/mL in [14] (Morganella morganii IFO 3848, Gram -, hydrochloride); 0.10 µg/mL with Enterobacter cloacae 963 (Enterobacter cloacae 963, Gram -, hydrochloride); 0.39 µg/mL in assay [17] (Citrobacter freundii NIHJ 10018-68, Gram -, hydrochloride). In assay [18], the MIC was 0.05 µg/mL.

Take `CN1Cc2csc3c(C(=O)O)c(=O)c4cc(F)c(N5CCNCC5)c1c4n23` [Compound (C), 9,1-(Methylimino)methano-7-fluoro-8-(1-piperazinyl)-5-oxo-5H-thiazolo[3,2-a]quinoline-4-carboxylic acid]: the MIC in assay [1] is 0.05 µg/mL (≈ 0.129 µM); in assay [2], 0.05 µg/mL (≈ 0.129 µM); in [3], 0.05 µg/mL (≈ 0.129 µM); in assay [4] it was 0.05 µg/mL (≈ 0.129 µM); in [5] it was 0.006 µg/mL (≈ 0.0154 µM); in assay [6] it was 0.39 µg/mL (≈ 1 µM). For the same molecule, the MIC in assay [7] was determined as 0.05 µg/mL (≈ 0.129 µM); with Escherichia coli KC-14, 0.05 µg/mL (≈ 0.129 µM); in assay [8], 0.006 µg/mL (≈ 0.0154 µM); in assay [9], 0.05 µg/mL (≈ 0.129 µM); in the assay with Shigella sonnei EW-33 it was 0.025 µg/mL (≈ 0.0644 µM); in [10], 0.2 µg/mL (≈ 0.515 µM). Moreover, the MIC in [11] was determined as 0.39 µg/mL (≈ 1 µM); in assay [12], 0.2 µg/mL (≈ 0.515 µM); in [13] it was 0.39 µg/mL (≈ 1 µM); in assay [14], 0.05 µg/mL (≈ 0.129 µM); in the assay with Proteus vulgaris OX-19, 0.006 µg/mL (≈ 0.0154 µM); in assay [15], 0.1 µg/mL (≈ 0.257 µM). In addition, the MIC in [16] was 0.05 µg/mL (≈ 0.129 µM); in the assay on Enterobacter cloacae 963 it was 0.05 µg/mL (≈ 0.129 µM); in assay [17], 0.1 µg/mL (≈ 0.257 µM); in assay [18], 0.025 µg/mL (≈ 0.0644 µM).
